Assay results as given in patent publication US9504747B2, “Lipids and lipid compositions for the delivery of active agents” (Novartis AG, priority 2013, dated 2016).

Experiments:
[1] = pKa measurement of the cationic lipid (TNS fluorescence vs pH); format: physicochemical; settings: probe TNS (fluorescent probe), Table 4; pKa of the cationic lipid of formula (I)
Procedure: Unless indicated otherwise, all pKa's referred to herein were measured at standard temperature and pressure. Also, unless otherwise indicated, all references to pKa are references to pKa measured using the following technique. 2 mM solution of lipid in ethanol was prepared by weighing the lipid and then dissolving it in ethanol. 0.3 mM solution of fluorescent probe TNS in ethanol:methanol 9:1 was prepared by first making 3 mM solution of TNS in methanol and then diluting to 0.3 mM with ethanol. An aqueous buffer containing 200 mM sodium phosphate dibasic and 100 mM citric acid was prepared. […] Using the Hamilton Microlab Star high throughput liquid handler and Hamilton run control software Software, 7.5 uL of probe/lipid mix were added to 242.5 uL of buffer in a 1 mL 96 well plate (model NUNC 260252, […] Nunc International). This was done with all twelve buffers. After mixing in 1 mL 96 well plate, 100 uL of each probe/lipid/buffer mixture was transferred to a 250 uL black with clear bottom 96 well plate (model COSTAR 3904, Corning). The fluorescence measurements are carried out on the SpectraMax M5 spectrophotometer using software SoftMax pro 5.2 and following parameters: After the measurement, the background fluorescence value of an empty well on the 96 well plate was subtracted from each probe/lipid/buffer mixture. The fluorescence intensity values were then normalized to the value at lowest pH. The normalized fluorescence intensity vs. pH chart was then plotted in the Microsoft Excel software. The twelve points were connected with a smooth line. The point on the line at which the normalized fluorescence intensity was equal to 0.5 was found. […] The pKa determined using this method is precise to about 0.1 pKa units.

[2] = Particle size of the lipid nanoparticle (dynamic light scattering, Malvern Zetasizer); format: physicochemical; settings: Table 4, FVII siRNA LNP, Z-average
Excerpt: (§1) The lipid nanoparticles have a size of about 1 to about 2,500 nm, about 1 to about 1,500 nm, about 1 to about 1,000 nm, in a sub-embodiment about 50 to about 600 nm, in a sub-embodiment about 50 to about 400 nm, in a sub-embodiment about 50 to about 250 nm, and in a sub-embodiment about 50 to about 150 nm. Unless indicated otherwise, all sizes referred to herein are the average sizes (diameters) of the fully formed nanoparticle, as measured by dynamic light scattering on a Malvern Zetasizer. The nanoparticle sample is diluted in phosphate buffered saline (PBS) so that the count rate is approximately 200-400 kcts. The data is presented as a weighted average of the intensity measure. The lipid nanoparticles (LNPs) were formed by mixing equal volumes of lipids dissolved in alcohol with siRNA dissolved in a citrate buffer by an impinging jet process. […] The siRNA to total lipid ratio is approximately 0.05 (wt/wt). Where a LNP formulation contains four lipid components, the molar ratios correspond to the type of lipid as it appears in the first four columns of the table, in the order that they appear. The ratio of the lipids ranges from 20 to 70 mole percent for the cationic lipid with a target of 40-60, the mole percent of helper lipid ranges from 20 to 70 with a target of 30 to 50, the mole percent of neutral lipid ranges from 0-30, the mole percent of PEG lipid has a range from 1 to 6 with a target of 2 to 5. The concentration of siRNA solution ranges from 0.7 to 1.0 mg/mL with a target of 0.8 to 0.9 mg/mL in a sodium citrate: sodium chloride buffer pH 4-6, with a target of 4.5-5.5. The LNPs are formed by mixing equal volumes of lipid solution in ethanol with siRNA dissolved in a citrate buffer by an impinging jet process through a mixing device with ID ranging from 0.25 to 2.0 mm at a flow rate from 10 to 640 mL/min. The mixed LNP solution is held at room temperature for 0-24 hrs prior to a dilution step. […] The final product is sterile filtered and stored at 4° C. Unless indicated otherwise, all particle size measurements referred to in Tables 4 and 5 are the Z-average particle size of the fully formed nanoparticle, as measured by dynamic light scattering on a Malvern Zetasizer. The nanoparticle sample was diluted in phosphate buffered saline (PBS) so that the count rate is approximately 200-400 kcts.

[3] = Polydispersity index (PDI) of the lipid nanoparticle (dynamic light scattering); format: physicochemical; settings: Table 4, FVII siRNA LNP
Excerpt: as §1, with “The” for “The lipid nanoparticles have a size of about 1 to about 2,500 nm, about 1 to about 1,500 nm, about 1 to about 1,000 nm, in a sub-embodiment about 50 to about 600 nm, in a sub-embodiment about 50 to about 400 nm, in a sub-embodiment about 50 to about 250 nm, and in a sub-embodiment about 50 to about 150 nm. Unless indicated otherwise, all sizes referred to herein are the average sizes (diameters) of the fully formed nanoparticle, as measured by dynamic light scattering on a Malvern Zetasizer. The nanoparticle sample is diluted in phosphate buffered saline (PBS) so that the count rate is approximately 200-400 kcts. The data is presented as a weighted average of the intensity measure. The”, “all PDIs” for “all particle size measurements”, “to herein” for “to in Tables 4 and 5”, “the PDI” for “the Z-average particle size”, “rate was” for “rate is”, “kcts. The data is presented in Tables 4 and 5 as a weighted average of the intensity measure.” for “kcts.”

[4] = system: respiratory syncytial virus F protein; test: Immunization studies: anti-RSV-F titers after liposome-delivered vA317 self-replicating RNA; format: in vivo; settings: BALB/c mice, Course A = days 0 & 21, liposomes with 0.1 μg vA317 replicon (naked control 1 μg)
Procedure: BALB/c were immunized with liposomes comprising DSPC, cholesterol, and various lipids of the invention (or, for comparison, the cationic lipid 1,2-dilinoleyloxy-N,N-dimethyl-3-aminopropane or ‘DLinDMA’). The liposomes encapsulated 0.1 μg of “vA317” self-replicating RNA replicon which encodes respiratory syncytial virus F protein (see WO2012/031043). […] Doses were given either on days 0 & 21 or days 0 & 42. Immune responses were assessed 2 weeks after each dose (2wp1, 2wp2), and in some cases also at 4 weeks after the second dose (4wp2). Four series of experiments were performed, each with its own naked control.

[5] = Chol/DSPC/stealth lipid S010, molar ratio 45/44/9/2
[6] = Chol/DSPC/stealth lipid S010, 45/44/9/2
[7] = Chol/DSPC/stealth lipid PEG-DMG, molar ratio 45/44/9/2
[8] = Chol/DSPC/stealth lipid PEG-DMG, 45/44/9/2

Row | SMILES | pKa [1] | Size (nm) [2, 5] [nm] | PDI [3, 6] | anti-RSV-F titer 2wp1 pool 1 ([4]; 2 weeks after first dose) | anti-RSV-F titer 2wp1 pool 2 ([4]; 2 weeks after first dose) | anti-RSV-F titer 2wp2 pool 1 ([4]; 2 weeks after second dose) | anti-RSV-F titer 2wp2 pool 2 ([4]; 2 weeks after second dose) | anti-RSV-F titer 4wp2 pool 1 ([4]; 4 weeks after second dose) | anti-RSV-F titer 4wp2 pool 2 ([4]; 4 weeks after second dose) | Size (nm) [2, 7] [nm] | PDI [3, 8]
1 | CCCCC/C=C\C/C=C\CCCCCCCC(=O)OCc1cc(COC(=O)CCCCCCC/C=C\C/C=C\CCCCC)cc(COC(=O)OCCCN(CC)CC)c1 [Example 69] | 5.3 | 98.13 | 0.053 | 2853 | 4481 | 23851 | 20793 | 19075 | 21504 | – | –
2 | CCCCCCCCCCCC(=O)OCCCCCCCCOc1cc(CN(C)C)cc(OCCCCCCCCOC(=O)CCCCCCCCCCC)c1 [Example 53] | 6.03 | 113.3 | 0.079 | – | – | – | – | – | – | 129.1 | 0.1
3 | CCCCCCCCCOC(=O)OCCCCCC(=O)OCc1cc(COC(=O)CCCCCOC(=O)OCCCCCCCCC)cc(CN(C)C)c1 [Example 106] | 6.04 | 149.3 | 0.083 | – | – | – | – | – | – | – | –
4 | CCCCCCCCCCCCC(=O)OCc1cc(COC(=O)CCCCCCCCCCCC)cc(CN(C)C)c1 [Example 34] | 5.95 | 113.8 | 0.036 | – | – | – | – | – | – | 126.0 | 0.06
5 | CCCCCC(=O)OCCCCCCCCOc1cc(CN(C)C)cc(OCCCCCCCCOC(=O)CCCCC)c1 [Example 41] | 5.83 | 170.7 | 0.119 | – | – | – | – | – | – | – | –
6 | CCCCCCCC(=O)OCCCCCCOc1cc(CN(C)C)cc(OCCCCCCOC(=O)CCCCCCC)c1 [Example 48] | 5.93 | 152.3 | 0.105 | – | – | – | – | – | – | – | –
7 | CCC/C=C\CCCCCCC(=O)OCCCCCCOc1cc(CN(C)C)cc(OCCCCCCOC(=O)CCCCCC/C=C\CCC)c1 [Example 50] | 5.92 | 126 | 0.056 | – | – | – | – | – | – | – | –
8 | CCCCC/C=C\C/C=C\CCCCCCCC(=O)OCCOc1cc(CN(C)C)cc(OCCOC(=O)CCCCCCC/C=C\C/C=C\CCCCC)c1 [Example 40] | 6.17 | 94.28 | 0.062 | – | – | – | – | – | – | 110.9 | 0.02
9 | CCCCC/C=C\C/C=C\CCCCCCCC(=O)OCc1cc(COC(=O)CCCCCCC/C=C\C/C=C\CCCCC)cc(CN(C)C)c1 [Example 33] | 5.85 | 79.15 | 0.042 | – | – | – | – | – | – | 107.8 | 0.06
10 | CCCCC/C=C\C/C=C\CCCCCCCC(=O)OCCCCOc1cc(CN(CC)CC)cc(OCCCCOC(=O)CCCCCCC/C=C\C/C=C\CCCCC)c1C [Example 55] | 6.37 | 106.9 | 0.043 | – | – | – | – | – | – | 101.9 | 0.10
11 | CCCCCCCC(=O)OCC(COC(=O)CCCCCCC)COc1cc(CN(C)C)cc(OCC(COC(=O)CCCCCCC)COC(=O)CCCCCCC)c1 [Example 111] | 6.27 | 161.9 | 0.048 | – | – | – | – | – | – | – | –
12 | CC/C=C\C/C=C\C/C=C\CCCCCCCC(=O)OCCCCOc1cc(CN(C)C)cc(OCCCCOC(=O)CCCCCCC/C=C\C/C=C\C/C=C\CC)c1 [Example 62] | 5.9 | 102.5 | 0.066 | – | – | – | – | – | – | – | –
13 | CCCCCCCC(=O)OC[C@@H](CCOc1cc(CN(C)C)cc(OCC[C@@H](COC(=O)CCCCCCC)OC(=O)CCCCCCC)c1)OC(=O)CCCCCCC [Example 92] | 5.92 | 117.3 | 0.065 | – | – | – | – | – | – | – | –
14 | CCCCCCCCCCCCCC(=O)OCCCCOc1cc(CN(C)C)cc(OCCCCOC(=O)CCCCCCCCCCCCC)c1 [Example 61] | 5.82 | 81.79 | 0.076 | – | – | – | – | – | – | – | –
15 | CCCCCCCC(=O)OCCCCCCCCCC(=O)OCc1cc(COC(=O)CCCCCCCCCOC(=O)CCCCCCC)cc(CN(C)C)c1 [Example 86] | 5.84 | 120.3 | 0.058 | – | – | – | – | – | – | 128.7 | 0.05
16 | CCCCC/C=C\C/C=C\CCCCCCCC(=O)OCCCCOc1cc(CN2CCCC2)cc(OCCCCOC(=O)CCCCCCC/C=C\C/C=C\CCCCC)c1 [Example 112] | 6.08 | – | – | – | – | – | – | – | – | 96.1 | 0.1
17 | CCCCCCCC(=O)OCCCCCCCCCCOc1cc(CN(CC)CC)cc(OCCCCCCCCCCOC(=O)CCCCCCC)c1OCCCCCCCCCCOC(=O)CCCCCCC [Example 100] | 6.17 | 105.9 | 0.121 | – | – | – | – | – | – | 106.4 | 0.07
